For two compounds, IC50 results are on record in publication PMC6213216, “AbeTx1 Is a Novel Sea Anemone Toxin with a Dual Mechanism of Action on Shaker-Type K^+ Channels Activation” (Marine Drugs, 2018).

The term IC50 denotes the concentration at which inhibition is half-maximal.

Positions of bridges follow the written chain, without caps; N, C: chain ends. Residues, ends and D or L forms follow the SMILES beside them.

One test addresses T1, rKV1.1 (Rattus norvegicus, UniProt P10499).
T1 construct: expressed in transfected cells; host or cells: Xenopus laevis oocytes injected with cRNA
Kind of test: Two-electrode voltage-clamp on Xenopus laevis oocytes expressing rKV1.1. It is filed as cell-based. To be noted: concentration-response curve, percentage blocked current fitted with Hill equation; TEVC oocytes, 0 mV from −90 mV; mean ± SE, n ≥ 3; SEM; read-out: KV1.1 IC50. As to the method: (§1) The pharmacological effect of AbeTx1 was analyzed by heterologous expression of 12 voltage-gated potassium channels isoforms (rKV1.1, Genbank NM173095; rKV1.2, Genbank NM012970; hKV1.3, Genbank L23499; rKV1.4,Genbank NM012971; rKV1.5, Genbank NM012972; rKV1.6, Genbank NM575671; Shaker IR from Drosophila melanogaster, Genbank CG12348; rKV2.1, Genbank NM013186; hKV3.1, Genbank NM004976; rKV4.2, Genbank NM031730; rKV4.3, Genbank NM031739 and hERG, Genbank NM000238), and three voltage-gated sodium channel subtypes (rNaV1.2, Genbank NM012647; rNaV1.4, Genbank M26643 and BgNaV1.1, from Blattella germanica) (r, rat; h, human) in oocytes from Xenopus laevis. The linearized plasmids were transcribed using a T7 or SP6 mMESSAGE-mMACHINE transcription kit (Life Technologies, Austin, TX, USA). Oocytes were injected with 20–50 nL of cRNA at a concentration of 1 ng·nL^−1 using a microinjector (Drummond Scientific, Broomall, PA, USA). The oocytes were stored for 1–3 days at 16 °C until sufficient expression of voltage-gated ion channels was achieved. Oocytes were maintained in an ND96 solution (in mM: 96 NaCl, 2 KCl, 1.8 CaCl2, 2 MgCl2 and 5 HEPES; pH 7.4), supplemented with 50 µg·mL^−1 gentamicin sulfate.
(§2) Two-electrode voltage-clamp recordings were performed at room temperature (18–22 °C) using a Geneclamp 500 amplifier (Molecular Devices, Sunnyvale, CA, USA) controlled by a pClamp data acquisition system (Axon Instruments, Union City, CA, USA). ND96 was used as bath solution. Whole-cell currents from oocytes were recorded 1–3 days after injection. Voltage and current electrodes were filled with KCl (3 M). The resistance of both electrodes was kept between 0.8–1.0 MΩ. The elicited currents were filtered at 0.5 or 2 kHz using a four-pole low-pass Bessel filter. Leak subtraction was performed using a -P/4 protocol. KV1.1-KV1.6 and Shaker IR currents were evoked by 500 ms depolarization to 0 mV, followed by a 500 ms pulse to −50 mV, from a holding potential of −90 mV. KV2.1, KV3.1, KV4.2, and KV4.3 currents were elicited by 500 ms pulses to + 20 mV from a holding potential of −90 mV. Current traces of hERG channels were elicited by applying a +40 mV pulse for 2.5 s, followed by a step to −120 mV for 2.5 s. Sodium current traces were evoked by 100 ms depolarization steps from a holding potential of −90 mV to 0 mV. Concentration-response curves were constructed by adding different AbeTx1 or analogs concentrations directly to the bath solution. The percentage of the KV blockade was plotted against the logarithm of the applied concentrations and fitted with the Hill Equation (1):y = 100/[1 + (IC50/[toxin]) × h](1) where y is the amplitude of the toxin-induced effect, IC50 is the toxin concentration at half-maximal efficacy, [toxin] is the toxin concentration, and h is the Hill coefficient. To investigate the effects on the voltage dependence of activation, current traces were evoked by 10 mV depolarization steps from a holding potential of −90 mV. Data were normalized to the maximal K^+ current amplitude, plotted against prepulse potential, and fitted using the Boltzmann Equation (2):IK/Imax = [1 + (exp(Vg − V)/k] − 1(2) where Imax represents maximal potassium current (IK), Vg is the voltage corresponding to half-maximal current, and k is the slope factor. Each experimental data represents mean ± standard error of at least three oocytes (n ≥ 3) from different frogs. Effect of the toxin on current-voltage experiments was statistically examined by comparing the control condition and the presence of toxin using the Student’s paired t-test. P-values < 0.05 are considered to be statistically significant. Data were analyzed using Clampfit 10.4 (Molecular Devices, Sunnyvale, CA, USA) and Origin v8.1 software (Origin Lab, Northampton, MA, USA), under the institutional license of the University of São Paulo.

The next test deals with T2, rKV1.6 (Rattus norvegicus, UniProt P17659).
T2 construct: expressed in transfected cells; host or cells: Xenopus laevis oocytes injected with cRNA
In words: Two-electrode voltage-clamp on Xenopus laevis oocytes expressing rKV1.6. In kind it is cell-based. To be noted: concentration-response curve, percentage blocked current fitted with Hill equation; TEVC oocytes, 0 mV from −90 mV; mean ± SE, n ≥ 3; SEM; read-out: KV1.6 IC50. How it is done:
as §1, §2
On the technique in general: Two-electrode voltage clamp is typically applied to oocytes expressing channels or transporters.

T1 sequence (P10499 whole entry): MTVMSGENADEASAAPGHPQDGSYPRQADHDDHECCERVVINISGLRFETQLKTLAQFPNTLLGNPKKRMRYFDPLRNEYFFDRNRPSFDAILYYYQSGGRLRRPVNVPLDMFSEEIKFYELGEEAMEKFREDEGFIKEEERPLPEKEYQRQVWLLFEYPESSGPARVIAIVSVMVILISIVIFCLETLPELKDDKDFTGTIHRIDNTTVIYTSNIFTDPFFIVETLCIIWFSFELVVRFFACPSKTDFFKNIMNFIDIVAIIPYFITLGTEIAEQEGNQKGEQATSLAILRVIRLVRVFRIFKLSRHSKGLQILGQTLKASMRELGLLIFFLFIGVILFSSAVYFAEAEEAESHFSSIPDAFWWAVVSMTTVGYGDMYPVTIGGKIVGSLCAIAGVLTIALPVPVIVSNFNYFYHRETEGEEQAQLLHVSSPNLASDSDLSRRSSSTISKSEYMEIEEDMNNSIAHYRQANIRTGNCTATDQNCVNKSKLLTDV
T2 sequence (P17659 whole entry): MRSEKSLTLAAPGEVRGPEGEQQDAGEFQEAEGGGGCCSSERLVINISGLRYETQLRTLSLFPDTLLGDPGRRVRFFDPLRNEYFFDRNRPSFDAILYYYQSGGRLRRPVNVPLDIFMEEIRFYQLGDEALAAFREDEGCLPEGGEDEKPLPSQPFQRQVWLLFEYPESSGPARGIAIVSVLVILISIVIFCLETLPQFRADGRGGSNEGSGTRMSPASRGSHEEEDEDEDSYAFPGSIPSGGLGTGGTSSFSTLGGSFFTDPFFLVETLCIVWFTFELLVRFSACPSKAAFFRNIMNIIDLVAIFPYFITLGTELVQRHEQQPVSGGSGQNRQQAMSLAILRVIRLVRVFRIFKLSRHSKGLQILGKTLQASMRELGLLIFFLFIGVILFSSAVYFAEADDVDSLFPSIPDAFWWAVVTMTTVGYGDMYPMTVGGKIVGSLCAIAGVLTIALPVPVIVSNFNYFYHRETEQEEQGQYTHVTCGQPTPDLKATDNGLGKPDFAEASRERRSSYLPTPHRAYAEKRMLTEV

Take `C[C@@H]1NC(=O)[C@@H]2CSSC[C@H](NC(=O)[C@H]([C@@H](C)O)NC(=O)[C@H](CCCCN)NC(=O)[C@@H](NC(=O)[C@@H](N)CCCNC(=N)N)CSSC[C@@H](C(=O)NCC(=O)O)NC(=O)[C@H](CC(N)=O)NC(=O)[C@@H]3CCCN3C(=O)[C@H](CCCCN)NC(=O)[C@@H]3CCCN3C1=O)C(=O)N[C@@H](CO)C(=O)N[C@@H](CCCCN)C(=O)NCC(=O)N[C@@H](CCCNC(=N)N)C(=O)N2` [Arg11Ala] (H-RCKTCSKGRCAPKPNCG-OH; disulfide 2-16, 5-10): the half-maximal inhibitory concentration (IC50) on rKV1.1 worked out at 21.5 µM; on rKV1.6, 0.811 ± 0.179 µM.
On the same counts, the results for `C[C@@H]1NC(=O)[C@H](CO)NC(=O)[C@@H]2CSSC[C@H](NC(=O)[C@H](CCCNC(=N)N)NC(=O)CNC1=O)C(=O)N[C@@H](CCCNC(=N)N)C(=O)N1CCC[C@H]1C(=O)N[C@@H](CCCCN)C(=O)N1CCC[C@H]1C(=O)N[C@@H](CC(N)=O)C(=O)N[C@H](C(=O)NCC(=O)O)CSSC[C@H](NC(=O)[C@@H](N)CCCNC(=N)N)C(=O)N[C@@H](CCCCN)C(=O)N[C@@H]([C@@H](C)O)C(=O)N2` [Lys7Ala] (H-RCKTCSAGRCRPKPNCG-OH; disulfide 2-16, 5-10) are 17.8 µM and 0.852 ± 0.09 µM.
